Results as given in patent publication US5952301A, “Compositions and methods for enhancing intestinal function” (1149336 Ontario Inc., priority 1996, dated 1999).
Several values for one entry are separate records, joined by “and”; a condition that tells them apart may be missing. Equal values may be shown once.

Assays:
small intestine [1] = assay: Co-administration of GLP-2 with IGF-1 or GH: small intestine mass (Example 2); format: in vivo, mice; conditions: for Small Intestine Mass: s.c. twice daily (GH once daily) for 10 days, sacrifice day 11, GLP-2 peptides 2.5 μg, IGF-1/LRIGF-1 50 μg, GH 25 μg per dose, CD1 female mice; for % Change Relative to PBS Control (small intestine) / Change in Intestine Mass Relative to Control (small intestine): same regimen; for Change in Intestine Mass Relative to Control (small intestine): relative to PBS control
Text: (§1) Forty-eight, six week old female CD1 mice (approx. 25 grams, obtained from Charles River Laboratories) were acclimatized in the animal facility for 1 week prior to the experiment. They were housed in plastic bottom, wire lid cages, maintained on a 12 hr light/dark cycle, and allowed chow and water, ad libitum throughout the study. Four days before starting the treatment the mice were weighed using a Mettler PJ300 scale and randomly allocated to 1 of 12 treatment groups. For the experiment, subcutaneous injections in the right hind quarter were given twice daily in the morning and evening for 10 days. However, Growth Hormone (GH) was administered only once a day in the morning. On day 10, the mice were fasted from 12 noon on. Body weight was also taken on day 5 and day 11.
(§2) The treatment groups consisted of the following peptides and peptide combinations. The amount of peptide received per dose by each animal is marked in beside each entry.
(§3) The peptides were weighed (Mettler AE166 scale), reconstituted and aliquoted on the day prior to the first injection. The injection volume, 0.5 ml, was constant through out the experiment using a 1/2 cc U-100 Insulin Syringe (Becton Dickinson and Company, N.J.). All peptide aliquots, except Protropin (GH), were kept at -20° C. and removed 60 minutes prior to injection to thaw. GH was kept at 4° C.
(§4) Control mice (group 1) received the same volume (0.5 ml) of phosphate buffered saline (PBS-1x-137 mM NaCl, 2.7 mM KCl, 4.3 mM Na2HPO4, pH 7.3). Peptides [rat GLP-2] (5 μg/ml) and human [Gly 2] GLP-2 (5 μg/ml) were reconstituted in PBS. One microliter of 1 N NaOH was required to dissolve [Gly2]hGLP-2 in 1 ml.
(§5) IGF recombinant peptides (IGF-1, Lot #FJF-103;Long R3IGF-1(LRIGF-1), Lot# HJF-A01 GroPep Pty Ltd., Australia) stock solutions were reconstituted in 10 mM HCl at a concentration of 1 mg/ml. To minimize the absorption of the peptide to the plastic surface, RIA Grade Bovine Serum Albumin (BSA) (BioLabs Lot 7943) was added to the PBS working solution (100 μg/ml BSA final concentration). Protropin (Growth hormone) (Lot C9009A2, Genentech Canada Inc., Burlington, ON) stock solution was reconstituted with Bacteriostatic water supplied in the kit. The working solution (50 μg/ml) was diluted in PBS (without BSA). Combination treatments of GH+rat GLP-2 and GH+[Gly 2]hGLP-2 were administered by mixing 0.25 mls of each peptide, which were taken up into the same syringe to maintain a consistent injection volume of 0.5 ml. All other combination treatments (for example, rGLP-2+IGF etc.) were initially made up as separate solutions, mixed together, and frozen down together as aliquots of a single mixture, to be administered as single 0.5 ml injections.
(§6) Mice were sacrificed on day 11. Weight measurements were taken for the heart, kidneys, stomach, small intestine and large intestine. Small intestine length was also measured. Blood was taken via cardiac puncture and the plasma was frozen for future analysis. Tissues were also removed for histological analysis.

large intestine = assay: Co-administration of GLP-2 with IGF-1 or GH: large intestine mass (Example 2); format: in vivo, mice; conditions: for Large Intestine Mass: s.c. twice daily (GH once daily) for 10 days, sacrifice day 11, GLP-2 peptides 2.5 μg, IGF-1/LRIGF-1 50 μg, GH 25 μg per dose, CD1 female mice; for % Change Relative to PBS Control (large intestine) / Change in Intestine Mass Relative to Control (large intestine): same regimen; for Change in Intestine Mass Relative to Control (large intestine): relative to PBS control
Text: as §1, §2, §3, §4, §5, §6

small intestine [2] = assay: Effect of rat GLP-2 on small intestine weight in mice (Example 1); format: in vivo; conditions: for Small Intestine Weight % body wt / Small Intestine Weight Ave: group average; for Small Intestine Weight % body wt / Small Intestine Weight Ave / Small Intestine Weight Day 10: 41.5 μg peptide per injection s.c. every 12 hours for 10 days, CD1 females; for Small Intestine Weight Day 10: single mice
Method: This experiment was designed to investigate the effect of GLP-2 on small intestine growth. Mice were treated with human GLP-1, rat GLP-2, or no peptide, and the mass of the small intestine analyzed.
For this experiment, rat GLP-2 and human GLP-1 (7-36 amide) were custom synthesized by application of the tBoc-based solid phase approach. […] The pH was then readjusted to about 7.0 by addition of an equal volume of IN NaOH […], and the solution volume was then adjusted to 10 mL by addition of distilled water. To prepare the formulation for injection, the 10 mL peptide solution and the 50 mL solution of 16% gelatin were combined with mixing, and aliquots for injection were drawn into a 0.5 mL insulin syringe. The same procedure was used to formulate the GLP-1, with the exception that no acid/base adjustment was necessary given its relative greater solubility in water.
Three groups of six mice (8 week old, CD1 females from Charles River Laboratories) were treated as follows. Each mouse received injections for 10 days. The injections were delivered subcutaneously in a final volume of 16% gelatin, with 0.5 cc injected subcutaneously every 12 hours. Mice treated with GLP-1 or GLP-2 peptide received 41.5 μg of the respective peptide in each injection. Control mice received 0.5 cc of 16% gelatin solution, but no peptide. Mice were fed standard rat chow with free access to food and water, until 12 hours prior to sacrifice, at which time food was withheld, and water only was given. The weight of the small intestine was ascertained by excising the entire intestine, and removing the stomach (proximal end) and appendix/cecum/large intestine (distal end). The remaining small intestine was cleaned with saline to remove feces, and weighed.

IGF-1: Insulin-Like Growth Factor-1, recombinant peptide, GroPep Pty Ltd.
Small Intestine Mass (small intestine [1]): 1.158 g and 1.517 g | Large Intestine Mass (large intestine): 0.262 g | % Change Relative to PBS Control (large intestine) (large intestine): -7% | Change in Intestine Mass Relative to Control (large intestine) (large intestine): 0.021 g

[Gly 2] hGLP-2: Human GLP-2 having Gly substituted for Ala at position 2 (HGDGSFSDEMNTILDNLAARDFINWLIQTKITD; Glucagon-like peptide 2; UniProt P01275 146-178, looked up, variant A2G)
Small Intestine Mass (small intestine [1]): 1.810 g | % Change Relative to PBS Control (small intestine) (small intestine [1]): +75% | Change in Intestine Mass Relative to Control (small intestine) (small intestine [1]): 0.775 g | Large Intestine Mass (large intestine): 0.308 g | % Change Relative to PBS Control (large intestine) (large intestine): +9% | Change in Intestine Mass Relative to Control (large intestine) (large intestine): 0.025 g

hGH: Protropin (Growth hormone), Genentech Canada Inc. [reference compound]
Small Intestine Mass (small intestine [1]): 1.230 g | % Change Relative to PBS Control (small intestine) (small intestine [1]): +19% | Change in Intestine Mass Relative to Control (small intestine) (small intestine [1]): 0.195 g | Large Intestine Mass (large intestine): 0.260 g | % Change Relative to PBS Control (large intestine) (large intestine): -8% | Change in Intestine Mass Relative to Control (large intestine) (large intestine): 0.023 g

human GLP-1 (7-36 amide) [reference compound]
Small Intestine Weight % body wt (small intestine [2]): 5.26 ± .25 % body wt | Small Intestine Weight Ave (small intestine [2]): 1.33 ± .04 gm | Small Intestine Weight Day 10 (small intestine [2]): 1.4 gm and 1.3 gm and 1.2 gm

rat GLP-2: rat Glucagon-like peptide-2, 33 amino acid peptide, custom synthesized by tBoc-based solid phase approach (HADGSFSDEMNTILDNLATRDFINWLIQTKITD; Glucagon-like peptide 2; UniProt P06883 146-178, looked up)
Small Intestine Mass (small intestine [1]): 1.066 g | % Change Relative to PBS Control (small intestine) (small intestine [1]): +3% | Change in Intestine Mass Relative to Control (small intestine) (small intestine [1]): 0.031 g | increase in the mass of small intestine relative to control group and GLP-1 group (small intestine [2]; about 2 mg/kg (about 500 nmole/kg) twice daily for 10 days): statistically significant (p-- 0.05) increase | Small Intestine Weight % body wt (small intestine [2]): 8.12 ± .40 % body wt | Small Intestine Weight Ave (small intestine [2]): 2.08 ± .14 gm | Small Intestine Weight Day 10 (small intestine [2]): 1.8 gm and 2.3 gm and 2.4 gm | Large Intestine Mass (large intestine): 0.245 g | % Change Relative to PBS Control (large intestine) (large intestine): -13.10% | Change in Intestine Mass Relative to Control (large intestine) (large intestine): -0.038 g
